In patent US20250195601A1, “TURMERIC OIL ESSENTIAL-OIL BISABOLENE SESQUITERPENOIDS IN THE TREATMENT OF NON-NEURODEGENERATIVE DISEASES” (UNIVERSIDAD DE CUENCA, priority 2023, published 2025):

Legend:
Type in all cases: in vivo, human
[1] = tested on: patient with mixed cerebral palsy, epilepsy, constipation, mental retardation; experiment: Clinical course, Case 4; settings: with baclofen, before turmeric oil
From the text: Patient. They were the child of non-consanguineous parents, born of a twin pregnancy by cesarean section at 30 weeks' gestation. The patient had multiple complications in their neonatal period with prolonged mechanical ventilation, including neuro-infection and neonatal seizures.
Central hypotonia and peripheral hypertonia, dystonia and dyskinesia, ROT++++/++, bilateral plantar flexor reflex were present.
No advances regarding […] neurological condition were identified. The pharmacological therapy included baclofen to improve muscle tone and levetiracetam to control seizures.
Scoliosis, retractions, and joint deformities were still visible. Dystonias and dyskinesias were persistent.
In the subsequent 7.5 years, the patient had epileptic seizures of irregular onset and insufficient advances in their motor development. Administration of turmeric oil began with a dose of 27 mg per day.

[2] = tested on: patient with executive functions impairment, epilepsy, mental retardation, attention deficit; experiment: Clinical course, Case 1; settings: before turmeric oil
Experimental: […], due to their academic failure and their refusal to continue taking methylphenidate, it was decided to start using turmeric oil in a dosage of 36 mg/day.
The turmeric oil and two anticonvulsants (valproic acid and clobazam) were administered to the patient.
Conversely, a cognitive enrichment in the patient's profile was evident. This enhancement was reflected in their academic performance and […] general life development. The patient presented seizures relapse and maintained antiepileptic drugs administration.

[3] = tested on: patient with Guillain-Barré syndrome, flaccid tetraplegia; experiment: Clinical course and muscle strength, Case 5; settings: after three weeks of hospitalization, before turmeric oil
From the text: Patient. They were the child of non-consanguineous parents. Parents referred that one day the patient woke up but could not walk. Noteworthy, the day before this event, they received a COVID vaccine. The patient was taken to a hospital and evaluated in the emergency room. Demyelinating motor polyradiculoneuropathy of severe degree with distal predominance, more significant in lower extremities was reported after performing electromyography and nerve conduction velocity analysis. On the third day at the hospital, the patient lost walking, sitting, neck control and lower and upper extremities mobility. No mechanical ventilation was required.
Thus, the patient was prostrate, and it was recommended to start administering turmeric oil in a dose of 21.6 mg per day.

## CC[C@@H](C(N)=O)N1CCCC1=O [levetiracetam]
[1]
  seizures: not controlled

## COC(=O)C(c1ccccc1)C1CCCCN1 (stereo not drawn) [prolonged-release methylphenidate, methylphenidate]
[2]
  result of methylphenidate treatment: poor results

## gamma globulin
[3]
  condition at discharge: no improvement
